Experimental data: US5521173A, “Tricyclic benzazepine vasopressin antagonists” (American Home Products Corporation, priority 1995, dated 1996)

Molecular target: T1, Rat Kidney Medullary V2 Receptors (Rattus norvegicus, UniProt Q00788)
T1 construct: Medullary tissues from rat kidneys are dissected out; from tissue; host or cells: rat kidney medulla membranes
Assay: Binding Assay to Rat Kidney Medullary V2 Receptors
Conditions: rat kidney medullary V2 (no asterisk)
Description: Binding Assay to Rat Kidney Medullary V2 Receptors
Medullary tissues from rat kidneys are dissected out, cut into small pieces and soaked in a […] sodium chloride solution containing 1.0 mM EDTA with many changes of the liquid phase, until the solution is clear of blood. The tissue is homogenized in a 0.25M sucrose solution containing 1.0 mM EDTA and 0.1 mM PMSF using a Potter-Elvehjem homogenizer with a teflon pestle. The homogenate is filtered through several layers (4 layers) of cheese cloth. The filtrate is rehomogenized using a dounce homogenizer, with a tight fitting pestle. The final homogenate is centrifuged at 1500× g for 15 min. […] The protein content is determined by the Lowry's method (Lowry et al., J. Biol. Chem., 1953). […]
For binding experiments, the following is added in μl volume to wells of a 96 well format of a microtiter plate: 100.0 μl of 100.0 mM Tris.HCl buffer containing 0.2% heat inactivated BSA, 10.0 mM MgCl2 and a mixture of protease inhibitors: leupeptin, 1.0 mg %; aprotinin, 1.0 mg %; 1,10-phenanthroline, 2.0 mg %; trypsin inhibitor, 10.0 mg % and 0.1 mM PMSF, 20.0 μl of [^3 H] […] Non-specific binding is assessed in the presence of 1.0 μM of unlabeled ligand, added in 20 μl volume. […] The data are analyzed for IC50 values by the LUNDON-2 program for competition (LUNDON SOFTWARE, Ohio).

T1 sequence (Q00788 whole entry): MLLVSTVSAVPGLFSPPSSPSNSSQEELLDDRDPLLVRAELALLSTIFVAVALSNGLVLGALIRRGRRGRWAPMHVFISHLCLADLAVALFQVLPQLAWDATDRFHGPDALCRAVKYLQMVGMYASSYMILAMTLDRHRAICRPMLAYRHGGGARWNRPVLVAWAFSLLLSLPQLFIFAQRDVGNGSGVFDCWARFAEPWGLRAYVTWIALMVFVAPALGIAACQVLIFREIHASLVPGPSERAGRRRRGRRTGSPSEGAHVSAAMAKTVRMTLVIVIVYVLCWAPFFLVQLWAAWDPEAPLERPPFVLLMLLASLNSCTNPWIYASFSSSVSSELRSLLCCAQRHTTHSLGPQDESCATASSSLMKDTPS

IC50 [nM] | Compound
1200 | O=C(c1ccc(-c2ccccn2)cc1)N1Cc2cccn2Cc2ccccc21 [Example 9, 10,11-Dihydro-10-[4-(2-pyridinyl)benzoyl]-5H-pyrrolo[2,1-c][1,4]benzodiazepine]
3300 | O=C(c1ccc(-c2ccccc2C(F)(F)F)cc1)N1Cc2cccn2Cc2ccccc21 [Example 8]
